These are literature values, as cited in patent publication US8808752B2, “Controlled release particles and method for producing the same” (priority 2009, dated 2014).

Each structure is given as a SMILES string.

As for `C=C(C)C(=O)OCCOC(=O)C(=C)C` [Ethylene glycol dimethacrylate], the “water solubility (in words)” value was “water-insoluble”.

Consider `CSc1nc(NC2CC2)nc(NC(C)(C)C)n1` [MBACT, 2-methylthio-4-t-butylamino-6-cyclopropylamino-s-triazine, reference compound], for which the water solubility is given as 7 ppm.

Consider `C=C(C)C(=O)O` [Methacrylic acid], for which the water solubility was 8.9 wt %.

For `CCCC1COC(Cn2cncn2)(c2ccc(Cl)cc2Cl)O1` (centres unmarked) [Propiconazole, 1-[2-(2,4-dichlorophenyl)-4-n-propyl-1,3-dioxolane-2-ylmethyl]-1H-1,2,4-triazole, reference compound], the water solubility is 110 ppm.

Consider `C=C(C)C(=O)OCCCC` [n-Butyl methacrylate], for which the water solubility is listed as 0.08 wt %.
